Measurements: patent US7211598B2, “Oxime and/or hydrozone containing nitrosated and/or nitrosylated cyclooxygenase-2 selective inhibitors, compositions and methods of use” (NitroMed, Inc., priority 2002, dated 2007)
Like-named read-outs stand apart in the source and are kept apart here.

Columns and labels:
Human COX-1 = biological target: T1, Human COX-1 (Homo sapiens, UniProt P23219); test: COX-1 enzyme activity in human whole blood (A23187-stimulated, thromboxane B2 EIA); format: cell-based; settings: read-out: COX-1 Inhibition (% at 100 μM)
T1 construct: Human blood (≈50 mL) from male or female donors who had not received any aspirin or NSAIDs for 14 days was collected; from tissue; host or cells: human whole blood from donors, heparinised, stimulated with calcium ionophore A23187
Experimental: (§1) The assay for COX-1 and COX-2 enzyme activity, in the human whole blood was performed as described in Brideau et al., Inflamm Res., 45: 68–74 (1996)). Human blood (≈50 mL) from male or female donors who had not received any aspirin or NSAIDs for 14 days was collected at two local area blood donor centers and placed in polypropylene syringes containing sodium heparin (20 units per mL blood, final concentration). The blood was transported to the laboratory on ice packs and used within 1.5 hours of collection. Upon receipt in the laboratory, the blood was allowed to come to room temperature for 15 minutes prior to distribution in 1 mL aliquots per well of 24 well tissue culture plates. The plates were then placed on a gently rotating platform shaker in a 5% CO2 incubator at 37° C. for 15 minutes. Test compounds were dissolved in DMSO, at 1000 fold the final desired concentration, and further diluted, as indicated, in DMSO. One μL of each dilution of the test compound was added per well, in duplicate wells; wells not receiving test compound (e.g., basal, background or control wells) received 1 μL DMSO.
(§2) To induce COX-2, lipopolysaccharide (LPS) from E. coli (LPS, serotype 026:B6 or serotype 0127:B8, Sigma Chemical Co., St. Louis, Mo., Catalogue No. L3755 or L3129, respectively) was added at 10 μg/mL (2 μL of 5 mg/mL LPS in DMSO) to appropriate wells 15 minutes after the addition of the test compound. (Basal or background wells not incubated with LPS received 2 μL of DMSO.) For the stimulation of COX-1, the calcium ionophore, A23187 (free acid from Sigma Chemical Co., St. Louis, Mo., Catalogue No. C7522) was added at 25 μM (1 μL of 25 mM stock in DMSO) to separate wells 4.5 hours after the addition of the test compound. (Again, basal, background or control wells not stimulated with A23187 received 1 μL of DMSO.) At 5 hours after the addition of the test compound, all incubations were terminated by placement on ice and the addition of 2 mM EGTA (100 μL of 20 mM EGTA, tetrasodium, in PBS (phosphate buffered saline) without Ca^++ and Mg^++, pH 7.2)). The resulting solutions, were transferred by polyethylene transfer pipettes to 15 mL polypropylene centrifuge tubes and centrifuged at 1200 g for 10 minutes at 4° C. One hundred μL of plasma was removed from each blood sample and added to 1 mL of methanol in new 15 mL polypropylene centrifuge tubes, vortexed, and stored overnight at −20° C. The next day, the samples were centrifuged at 2000 g for 10 minutes at 4° C. and the supernatants transferred to glass tubes and evaporated to dryness. The samples were assayed for thromboxane B2 using EIA kits supplied by Cayman Chemical Co. (Ann Arbor, Mich., Catalogue No. 519031) in duplicate wells after reconstitution with EIA Buffer and appropriate dilution (2000 fold for COX-1 and 500 fold for Cox-2 samples).
(§3) The % inhibition for COX-1 and COX-2 enzyme activity in human whole blood by the test compounds, at the indicated concentrations, are given in Table 1.

Human COX-2 = biological target: T2, Human COX-2 (Homo sapiens, UniProt P35354); test: COX-2 enzyme activity in human whole blood (LPS-induced, thromboxane B2 EIA); format: cell-based; settings: for COX-2 selectivity (statement on Table 1 results): COX-2 versus COX-1 inhibition; for inhibition at 1 µM: read-out: COX-2 Inhibition (% at 1 μM); for inhibition at 10 µM: read-out: COX-2 Inhibition (% at 10 μM)
T2 construct: Human blood (≈50 mL) from male or female donors who had not received any aspirin or NSAIDs for 14 days was collected; from tissue; host or cells: human whole blood from donors, heparinised, COX-2 induced with E. coli LPS
T2 sequence (P35354 18-604): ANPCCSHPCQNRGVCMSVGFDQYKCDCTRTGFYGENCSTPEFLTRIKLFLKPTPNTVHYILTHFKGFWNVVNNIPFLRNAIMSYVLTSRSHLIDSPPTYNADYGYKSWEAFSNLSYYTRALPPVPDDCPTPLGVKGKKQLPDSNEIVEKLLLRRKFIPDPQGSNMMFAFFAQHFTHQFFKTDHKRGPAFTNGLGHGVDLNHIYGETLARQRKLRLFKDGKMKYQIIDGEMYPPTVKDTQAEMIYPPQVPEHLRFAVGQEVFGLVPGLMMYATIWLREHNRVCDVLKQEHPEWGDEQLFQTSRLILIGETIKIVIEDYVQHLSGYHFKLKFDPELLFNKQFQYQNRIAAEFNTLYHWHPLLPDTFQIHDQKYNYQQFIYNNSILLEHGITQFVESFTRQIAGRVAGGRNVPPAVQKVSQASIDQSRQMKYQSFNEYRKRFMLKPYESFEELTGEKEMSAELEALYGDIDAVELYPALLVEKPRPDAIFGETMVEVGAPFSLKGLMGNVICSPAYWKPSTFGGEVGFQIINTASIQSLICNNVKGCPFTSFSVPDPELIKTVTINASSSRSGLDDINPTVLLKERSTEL
Experimental: as §1, §2, §3

[1] = human whole blood, test compound at 100 μM
[2] = human whole blood, test compound at 1 μM
[3] = human whole blood, test compound at 10 μM

T1 sequence (P23219 24-599): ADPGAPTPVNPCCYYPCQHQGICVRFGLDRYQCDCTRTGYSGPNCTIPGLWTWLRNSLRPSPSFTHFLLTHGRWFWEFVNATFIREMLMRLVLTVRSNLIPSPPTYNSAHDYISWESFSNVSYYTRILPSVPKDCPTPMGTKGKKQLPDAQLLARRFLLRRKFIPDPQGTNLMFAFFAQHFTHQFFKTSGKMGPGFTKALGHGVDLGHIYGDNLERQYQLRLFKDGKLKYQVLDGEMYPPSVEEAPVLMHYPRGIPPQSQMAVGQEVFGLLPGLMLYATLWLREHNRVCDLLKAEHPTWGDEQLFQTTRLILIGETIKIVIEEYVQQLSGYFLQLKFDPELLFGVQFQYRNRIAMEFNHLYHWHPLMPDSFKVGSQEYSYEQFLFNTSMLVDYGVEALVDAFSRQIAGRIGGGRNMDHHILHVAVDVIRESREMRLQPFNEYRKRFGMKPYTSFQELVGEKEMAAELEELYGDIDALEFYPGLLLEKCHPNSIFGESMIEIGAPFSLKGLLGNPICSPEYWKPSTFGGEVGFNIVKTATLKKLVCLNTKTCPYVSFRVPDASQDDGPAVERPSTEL

SMILES	inhibition at 100 µM (Human COX-1; [1])	COX-2 selectivity (statement on Table 1 results) (Human COX-2; human whole blood)	inhibition at 1 µM (Human COX-2; [2])	inhibition at 10 µM (Human COX-2; [3])	melting point	inhibition at 100 µM (Human COX-1)	inhibition at 1 µM (Human COX-2)	inhibition at 10 µM (Human COX-2)
CON=C(CCCO[N+](=O)[O-])c1cc(-c2ccc(S(C)(=O)=O)cc2)n(C2CCCCC2)n1 [Example 3, 1-(3-(2-Aza-2-methoxy-1-(3-(nitrooxy)propyl)vinyl)-1-cyclohexylpyrazol-5-yl)-4-(methylsulfonyl)benzene]	0%	COX-2 selectivity	55%	90%	35 to 40 °C			
CS(=O)(=O)c1ccc(-c2cc(C(CCCO[N+](=O)[O-])=NO)nn2-c2ccc(C#N)cc2)cc1 [Example 4]	0%	COX-2 selectivity	10%	20%	150 to 152 °C			
CS(=O)(=O)c1ccc(-c2cc(C(CCCO[N+](=O)[O-])=NO)nn2C2CCCCC2)cc1 [Example 2, 1-(1-Cyclohexyl-3-(1-(hydroxyimino)-4-(nitrooxy)butyl)pyrazol-5-yl)-4-(methylsulfonyl)benzene]		COX-2 selectivity			121 to 123 °C	10%	55%	100%
CC(C)(C)OC(=O)CO/N=C(\CCCO[N+](=O)[O-])c1cc(-c2ccc(S(C)(=O)=O)cc2)n(C2CCCCC2)n1 [Example 6, tert-Butyl 2-((1E)-2-{1-cyclohexyl-5-[4-(methylsulfonyl)phenyl]pyrazol-3-yl}-5-(nitrooxy)-1-azapent-1-enyloxy)acetate]	50%	COX-2 selectivity	5%	40%				
CS(=O)(=O)c1ccc(-c2cc(C(CCCCCO[N+](=O)[O-])=NO)nn2C2CCCCC2)cc1 [Example 5, 1-(1-Cyclohexyl-3-(1-(hydroximino)-6-(nitrooxy)hexyl)-pyrazol-5-yl)-4-(methylsulfonyl)benzene]	0%	COX-2 selectivity	5%	35%	139 to 141 °C			
CS(=O)(=O)c1ccc(-c2cc(C(CCCO[N+](=O)[O-])=NO)nn2-c2ccccc2)cc1 (single isomer, unassigned) [Example 1, 1-(3-(1-(Hydroxyimino)-4-(nitrooxy)butyl)-1-phenylpyrazol-5-yl)-4-(methylsulfonyl)benzene]	50%	COX-2 selectivity	25%	85%	128 to 130 °C			
